Reference: patent publication US7312210B2, “Pyrrolo[2,1-c][1,4]benzodiazepine compounds and processes for the preparation thereof” (Council of Scientific and Industrial Research, priority 2005, dated 2007)

Experiments:
Breast cancer cell lines = experiment: NCI in vitro cytotoxicity screen (SRB assay), breast cell lines; assay type: cell-based, human; details: average of six to nine different cancer cell lines, 48 h exposure
Protocol: (§1) Biological Activity: In vitro biological activity studies were carried out at the National Cancer Institute (USA).
(§2) Cytotoxicity: The compounds 7-methoxy-8-{5-[4-(2-oxo-2H-4-chromenyl)piperazino]pentyl}-oxy-(11aS)-1,2,3,11a-5H-pyrrolo[2,1-c][1,4]benzodiazepin-5-one, 7-methoxy-8-{3-[4-(7-methoxy-8-methyl-2-oxo-2H-4-chromenyl)piperazino]propyl}-oxy-(11aS)-1,2,3,11a-5H-pyrrolo[2,1-c][1,4]benzodiazepin-5-one and 7-methoxy-8-{5-[4-(7-methoxy-8-methyl-2-oxo-2H-4-chromenyl)piperazino]pentyl}-oxy-(11aS)-1,2,3,11a-5H-pyrrolo[2,1-c][1,4]benzodiazepin-5-one were evaluated for in vitro anticancer activity against sixty human tumor cells derived from […] (leukemia, non-small-cell lung, colon, CNS, melanoma, ovarian, prostate, and breast cancer) as shown in (Table 2). For each compound, dose response curves for each cell line were measured at a minimum of five concentrations at 10 fold dilutions. A protocol of 48 h continuous drug exposure was used and a sulforhodamine B (SRB) protein assay was used to estimate cell viability or growth. The concentration causing 50% cell growth inhibition (GI50), total cell growth inhibition (TGI 0% growth) and 50% cell death (LC50, −50% growth) compared with the control was calculated.
(§3) Each cancer type represents the average of six to nine different cancer cell lines.

[1] = system: Leukemia cancer cell lines; experiment: NCI in vitro cytotoxicity screen (SRB assay), leukemia cell lines; assay type: cell-based, human; details: average of six to nine different cancer cell lines, 48 h exposure
Protocol: as §1, §2, §3

Colon cancer cell lines = experiment: NCI in vitro cytotoxicity screen (SRB assay), colon cell lines; assay type: cell-based, human; details: average of six to nine different cancer cell lines, 48 h exposure
Protocol: as §1, §2, §3

CNS cancer cell lines = experiment: NCI in vitro cytotoxicity screen (SRB assay), CNS cell lines; assay type: cell-based, human; details: average of six to nine different cancer cell lines, 48 h exposure
Protocol: as §1, §2, §3

[2] = system: sixty human tumor cells derived from nine cancer types; experiment: NCI in vitro cytotoxicity screen (SRB assay), mean graph midpoints over all cell lines; assay type: cell-based; details: for Log10LC50 mean graph midpoint (MG_MID): 50% cell death (−50% growth); for Log10LC50 mean graph midpoint (MG_MID) / Log10GI50 mean graph midpoint (MG_MID) / Log10TGI mean graph midpoint (MG_MID): 48 h continuous drug exposure, SRB protein assay, human tumor cell lines; for Log10GI50 mean graph midpoint (MG_MID): 50% cell growth inhibition; for Log10TGI mean graph midpoint (MG_MID): total cell growth inhibition (0% growth)
Protocol: as §1, §2

[3] = system: Melanoma cancer cell lines; experiment: NCI in vitro cytotoxicity screen (SRB assay), melanoma cell lines; assay type: cell-based, human; details: average of six to nine different cancer cell lines, 48 h exposure
Protocol: as §1, §2, §3

[4] = system: Non-small-cell-lung cancer cell lines; experiment: NCI in vitro cytotoxicity screen (SRB assay), non-small-cell-lung cell lines; assay type: cell-based, human; details: average of six to nine different cancer cell lines, 48 h exposure
Protocol: as §1, §2, §3

[5] = system: Ovarian cancer cell lines; experiment: NCI in vitro cytotoxicity screen (SRB assay), ovarian cell lines; assay type: cell-based, human; details: average of six to nine different cancer cell lines, 48 h exposure
Protocol: as §1, §2, §3

[6] = system: Prostate cancer cell lines; experiment: NCI in vitro cytotoxicity screen (SRB assay), prostate cell lines; assay type: cell-based, human; details: average of six to nine different cancer cell lines, 48 h exposure
Protocol: as §1, §2, §3

Renal cancer cell lines = experiment: NCI in vitro cytotoxicity screen (SRB assay), renal cell lines; assay type: cell-based, human; details: average of six to nine different cancer cell lines, 48 h exposure
Protocol: as §1, §2, §3

| SMILES | Log10LC50 concentration in mol/L causing 50% lethality (Breast cancer cell lines) [mol/L] | Log10LC50 concentration in mol/L causing 50% lethality [1] [mol/L] | Log10LC50 concentration in mol/L causing 50% lethality (Colon cancer cell lines) [mol/L] | Log10LC50 concentration in mol/L causing 50% lethality (CNS cancer cell lines) [mol/L] | Log10LC50 mean graph midpoint (MG_MID) [2] | Log10GI50 mean graph midpoint (MG_MID) [2] | Log10TGI mean graph midpoint (MG_MID) [2] | mean graph pattern: profile of activity and selectivity ([2]; various cell lines) | Log10LC50 concentration in mol/L causing 50% lethality [3] [mol/L] | Log10LC50 concentration in mol/L causing 50% lethality [4] [mol/L] | Log10LC50 concentration in mol/L causing 50% lethality [5] [mol/L] | Log10LC50 concentration in mol/L causing 50% lethality [6] [mol/L] | Log10LC50 concentration in mol/L causing 50% lethality (Renal cancer cell lines) [mol/L] |
| --- | --- | --- | --- | --- | --- | --- | --- | --- | --- | --- | --- | --- | --- |
| COc1cc2c(cc1OCCCCCN1CCN(c3cc(=O)oc4ccccc34)CC1)N=C[C@@H]1CCCN1C2=O [Compound 5c, 7-Methoxy-8-{5-[4-(2-oxo-2H-4-chromenyl)piperazino]pentyl}-oxy-(11aS)-1,2,3,11a-5H-pyrrolo[2,1-c][1,4]benzodiazepin-5-one] | −4.71 | −5.03 | −5.24 | −4.70 | −4.99 | −7.68 | −6.66 | interesting profile of activity and selectivity for various cell lines | −5.68 | −4.92 | −5.44 | −4.53 | −5.26 |
| COc1cc2c(cc1OCCCN1CCN(c3cc(=O)oc4c(C)c(OC)ccc34)CC1)N=C[C@@H]1CCCN1C2=O [Compound 5d, 7-Methoxy-8-{3-[4-(7-methoxy-8-methyl-2-oxo-2H-4-chromenyl)piperazino]propyl}-oxy-(11aS)-1,2,3,11a-5H-pyrrolo[2,1-c][1,4]benzodiazepin-5-one] | −4.11 | −4.22 | −4.87 | −4.11 | −4.19 | −5.68 | −4.86 |  | −4.34 | −4.23 | −4.00 | −4.00 | −5.29 |
| COc1cc2c(cc1OCCCCCN1CCN(c3cc(=O)oc4c(C)c(OC)ccc34)CC1)N=C[C@@H]1CCCN1C2=O [Compound 5f, 7-Methoxy-8-{5-[4-(7-methoxy-8-methyl-2-oxo-2H-4-chromenyl)piperazino]pentyl}-oxy-(11aS)-1,2,3,11a-5H-pyrrolo[2,1-c][1,4]benzodiazepin-5-one] | −4.52 | −5.39 | −5.41 | −4.63 | −4.96 | −6.49 | −5.85 |  | −5.29 | −4.87 | −4.28 | −4.85 | −5.17 |
